The record followed here is PMC7946002, “The development of novel cytochrome P450 2J2 (CYP2J2) inhibitor and the underlying interaction between inhibitor and CYP2J2” (Journal of Enzyme Inhibition and Medicinal Chemistry, 2021).

Series [1] addresses T1, Human recombinant CYP2J2 (Homo sapiens, UniProt P51589).
T1 construct: purchased Cypex (Scotland, UK)
T1 sequence (P51589 1-502): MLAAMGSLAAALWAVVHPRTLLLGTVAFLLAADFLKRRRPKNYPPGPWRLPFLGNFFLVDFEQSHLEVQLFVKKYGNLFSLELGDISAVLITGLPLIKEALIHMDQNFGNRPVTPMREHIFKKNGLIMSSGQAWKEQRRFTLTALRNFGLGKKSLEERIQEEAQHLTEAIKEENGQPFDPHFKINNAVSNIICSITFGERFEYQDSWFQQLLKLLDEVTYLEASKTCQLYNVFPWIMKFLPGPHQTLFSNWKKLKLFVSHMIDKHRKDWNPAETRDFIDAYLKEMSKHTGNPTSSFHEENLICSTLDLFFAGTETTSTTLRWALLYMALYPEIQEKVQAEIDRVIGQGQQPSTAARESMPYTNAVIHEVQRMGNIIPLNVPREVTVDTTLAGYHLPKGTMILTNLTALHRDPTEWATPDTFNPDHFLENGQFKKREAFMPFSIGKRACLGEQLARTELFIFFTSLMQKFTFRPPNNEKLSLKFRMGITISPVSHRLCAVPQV
Nature of the series: Inhibition activity of Piperine derivatives towards CYP2J2 (BnXPI probe, IC50). The settings on record: for IC50: CYP2J2 3.75 pmol/mL, BnXPI 4 μM, 30 min, triplicate, mean ± SD, read-out: Inhibitory activity (IC50) CYP2J2; for increase of inhibition activity compared with Piperine: IC50 versus Piperine. Type of series: biochemical. On the procedure: In our previous study, BnXPI was developed to be the first selective fluorescent probe for CYP2J2[24]. Thus, with the help of the fast and sensitive advantages of fluorescence technology, the potential inhibitory effect of 108 herbal medicines (Table S1) towards CYP2J2 was screened. In brief, in the standard incubation system (100 mM phosphoric acid buffer, pH 7.4, NADPH generate system, BnXPI and extract of herbal medicines), BnXPI was set at 4 μM, and the concentration of CYP2J2 was 0.01 nmol/mL, after the pre-incubation of BnXPI and herbal medicines (final concentration was 20 μg/mL) for 3 min, NADP^+ was added to initiate the reaction. After additional 30 min (mins) incubation, 100 μL ice acetonitrile was added to terminate the reaction and followed a 20000 g centrifugation at 4 °C, the supernatant was collected and assay on a Synergy H1 Microplate Reader (Bio-Tek). The blank solvent replaces the extract of herbal medicines was set as the control group. According to the screening method mentioned above, various concentration of Piperine derivatives were added into our standard incubation system and incubated with CYP2J2, probe BnXPI for 30 min. The concentration of CYP2J2 was set at 3.75 pmol/mL, the concentration of BnXPI was 4 μM. The control group was added blank solvent instead of the inhibitors.

The target of series [2] is T1, Human recombinant CYP2J2. Nature of the series: Inhibition kinetic study towards CYP2J2 (Lineweaver-Burk and Dixon plots). The settings on record: for Ki: BnXPI 0–8 μM; for inhibition type towards CYP2J2: intersection point in Lineweaver–Burk plot. The series is classed as biochemical. On the procedure: In order to clarify the inhibition type of compound 9a, 9k, and 9l towards CYP2J2, the inhibition kinetics were also performed. Briefly, the inhibition activity of target compounds towards the metabolism kinetic of BnPXI (0–8 μM) mediated by CYP2J2 was determinated under the different concentrations of inhibitors. At last, Lineweaver–Burk and Dixon plots were used to fit the data as previously described[25]^,[26]. The inhibition kinetic type was evaluated by determining the intersection point in the Lineweaver–Burk plots. […] (1) v=Vmax/1+Km/[S](1+[I]/Ki) (2) v=Vmax/(1+Km/[S])(1+[I]/Ki) (3) v=Vmax/(1+Km/[S]+[I]/Ki) (4) v=Vmax/Km/[S](1+[I]/Ki)+(1+[I]/αKi)

Turning to `O=C(/C=C/C=C/c1ccc2c(c1)OCO2)N1CCOCC1` [9e, (2E,4E)-5-(benzo[d][1,3]dioxol-5-yl)-1-morpholinopenta-2,4-dien-1-one], the IC50 at Human recombinant CYP2J2 [1] amounted to 12000 ± 1350 nM.

In the case of `CC(C)CN(CC(C)C)C(=O)/C=C/C=C/c1ccc2c(c1)OCO2` [9k, (2E,4E)-5-(benzo[d][1,3]dioxol-5-yl)-N,N-diisobutylpenta-2,4-dienamide], on Human recombinant CYP2J2 [1], the IC50 came to 40 ± 8 nM and the “increase of inhibition activity compared with Piperine” value is on record as “about 10 folds”. At Human recombinant CYP2J2 [2], the Ki stood at 110 nM and the “inhibition type towards CYP2J2” value was “competitive inhibition model”.

`CN(C)CCNC(=O)/C=C/C=C/c1ccc2c(c1)OCO2` [9j, (2E,4E)-5-(benzo[d][1,3]dioxol-5-yl)-N-(2-(dimethylamino)ethyl)penta-2,4-dienamide]: the IC50 at Human recombinant CYP2J2 [1] was 11800 ± 1470 nM.

For the compound `O=C(/C=C/C=C/c1ccc2c(c1)OCO2)N1CCS(=O)(=O)CC1` [9i, (2E,4E)-5-(benzo[d][1,3]dioxol-5-yl)-1–(1,1-dioxidothiomorpholino)penta-2,4-dien-1-one], on Human recombinant CYP2J2 [1], the IC50 amounted to 1240 ± 450 nM.

As for `O=C(/C=C/C=C/c1ccc2c(c1)OCO2)N1CCSCC1` [9h, (2E,4E)-5-(benzo[d][1,3]dioxol-5-yl)-1-thiomorpholinopenta-2,4-dien-1-one], the 50% inhibitory concentration (IC50) on Human recombinant CYP2J2 [1] was 750 ± 80 nM.

Turning to `O=C(/C=C/C=C/c1ccc2c(c1)OCO2)NC1CC1` [9b, (2E,4E)-5-(benzo[d][1,3]dioxol-5-yl)-N-cyclopropylpenta-2,4-dienamide], the IC50 at Human recombinant CYP2J2 [1] turned out to be 4720 ± 730 nM.

Regarding `C[C@@H]1COCCN1C(=O)/C=C/C=C/c1ccc2c(c1)OCO2` [9f, (2E,4E)-5-(benzo[d][1,3]dioxol-5-yl)-1-((R)-3-methylmorpholino)penta-2,4-dien-1-one], the IC50 on Human recombinant CYP2J2 [1] was 4660 ± 560 nM.

As for `O=C(/C=C/C=C/c1ccc2c(c1)OCO2)N1CCCC1` [9c, (2E,4E)-5-(benzo[d][1,3]dioxol-5-yl)-1-(pyrrolidin-1-yl)penta-2,4-dien-1-one], at Human recombinant CYP2J2 [1], the IC50 stood at 1580 ± 220 nM.

As for `C[C@H]1COCCN1C(=O)/C=C/C=C/c1ccc2c(c1)OCO2` [9g, (2E,4E)-5-(benzo[d][1,3]dioxol-5-yl)-1-((S)-3-methylmorpholino)penta-2,4-dien-1-one], on Human recombinant CYP2J2 [1], the IC50 stood at 2250 ± 560 nM.

As for `O=C(/C=C/C=C/c1ccc2c(c1)OCO2)NCc1ccc(F)cc1` [9l, (2E,4E)-5-(benzo[d][1,3]dioxol-5-yl)-N-(4-fluorobenzyl)penta-2,4-dienamide], at Human recombinant CYP2J2 [1], the IC50 came to 50 ± 5 nM and the “increase of inhibition activity compared with Piperine” value was “about 10 folds”. Also, on Human recombinant CYP2J2 [2], the Ki amounted to 74 nM and the “inhibition type towards CYP2J2” value is “competitive inhibition model”.

For the compound `O=C(/C=C/C=C/c1ccc2c(c1)OCO2)NC12CC3CC(CC(C3)C1)C2` [9d, (2E,4E)-N-((3s,5s,7s)-adamantan-1-yl)-5-(benzo[d][1,3]dioxol-5-yl)penta-2,4-dienamide], the IC50 at Human recombinant CYP2J2 [1] stood at 9330 ± 1060 nM.

With `O=C(/C=C/C=C/c1ccc2c(c1)OCO2)N1CCCCC1` [9a, (2E,4E)-5-(benzo[d][1,3]dioxol-5-yl)-1-(piperidin-1-yl)penta-2,4-dien-1-one], the IC50 on Human recombinant CYP2J2 [1] amounted to 440 ± 50 nM. Moreover, the Ki at Human recombinant CYP2J2 [2] was found to be 500 nM.

The IC50 is the concentration at which inhibition is half-maximal. The term Ki denotes a dissociation constant, usually derived from enzyme kinetics or from competition with a known ligand.
